Measurements as given in patent US12685726B2, “Sulfoximines as inhibitors of NaV1.8” (Gruenenthal GmbH, priority 2022, dated 2026).

Target: T1, human NaV 1.8 (Homo sapiens, UniProt Q9Y5Y9)
T1 construct: expressed in transfected cells; host or cells: HEK (recombinant cell line)
Test: Automated whole-cell patch clamp (Qube384) voltage-clamp recordings of sodium currents in HEK-NaV1.8 cell line
Type: cell-based
Conditions: read-out: Potency category (human NaV 1.8 IC50)
Outline: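 HEK cells expressing NaV1.8 with b3, whole-cell automated voltage clamp at room temperature or 19° C.; CsF-based internal, pH 7.4 external. State-dependent (−120 mV, V1/2 4 s, −10 mV test pulses) and 10/20 Hz 40-pulse protocols; ~12 min compound, vehicle-corrected, IC50 by 4-parameter logistic fit.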

T1 sequence (Q9Y5Y9 whole entry): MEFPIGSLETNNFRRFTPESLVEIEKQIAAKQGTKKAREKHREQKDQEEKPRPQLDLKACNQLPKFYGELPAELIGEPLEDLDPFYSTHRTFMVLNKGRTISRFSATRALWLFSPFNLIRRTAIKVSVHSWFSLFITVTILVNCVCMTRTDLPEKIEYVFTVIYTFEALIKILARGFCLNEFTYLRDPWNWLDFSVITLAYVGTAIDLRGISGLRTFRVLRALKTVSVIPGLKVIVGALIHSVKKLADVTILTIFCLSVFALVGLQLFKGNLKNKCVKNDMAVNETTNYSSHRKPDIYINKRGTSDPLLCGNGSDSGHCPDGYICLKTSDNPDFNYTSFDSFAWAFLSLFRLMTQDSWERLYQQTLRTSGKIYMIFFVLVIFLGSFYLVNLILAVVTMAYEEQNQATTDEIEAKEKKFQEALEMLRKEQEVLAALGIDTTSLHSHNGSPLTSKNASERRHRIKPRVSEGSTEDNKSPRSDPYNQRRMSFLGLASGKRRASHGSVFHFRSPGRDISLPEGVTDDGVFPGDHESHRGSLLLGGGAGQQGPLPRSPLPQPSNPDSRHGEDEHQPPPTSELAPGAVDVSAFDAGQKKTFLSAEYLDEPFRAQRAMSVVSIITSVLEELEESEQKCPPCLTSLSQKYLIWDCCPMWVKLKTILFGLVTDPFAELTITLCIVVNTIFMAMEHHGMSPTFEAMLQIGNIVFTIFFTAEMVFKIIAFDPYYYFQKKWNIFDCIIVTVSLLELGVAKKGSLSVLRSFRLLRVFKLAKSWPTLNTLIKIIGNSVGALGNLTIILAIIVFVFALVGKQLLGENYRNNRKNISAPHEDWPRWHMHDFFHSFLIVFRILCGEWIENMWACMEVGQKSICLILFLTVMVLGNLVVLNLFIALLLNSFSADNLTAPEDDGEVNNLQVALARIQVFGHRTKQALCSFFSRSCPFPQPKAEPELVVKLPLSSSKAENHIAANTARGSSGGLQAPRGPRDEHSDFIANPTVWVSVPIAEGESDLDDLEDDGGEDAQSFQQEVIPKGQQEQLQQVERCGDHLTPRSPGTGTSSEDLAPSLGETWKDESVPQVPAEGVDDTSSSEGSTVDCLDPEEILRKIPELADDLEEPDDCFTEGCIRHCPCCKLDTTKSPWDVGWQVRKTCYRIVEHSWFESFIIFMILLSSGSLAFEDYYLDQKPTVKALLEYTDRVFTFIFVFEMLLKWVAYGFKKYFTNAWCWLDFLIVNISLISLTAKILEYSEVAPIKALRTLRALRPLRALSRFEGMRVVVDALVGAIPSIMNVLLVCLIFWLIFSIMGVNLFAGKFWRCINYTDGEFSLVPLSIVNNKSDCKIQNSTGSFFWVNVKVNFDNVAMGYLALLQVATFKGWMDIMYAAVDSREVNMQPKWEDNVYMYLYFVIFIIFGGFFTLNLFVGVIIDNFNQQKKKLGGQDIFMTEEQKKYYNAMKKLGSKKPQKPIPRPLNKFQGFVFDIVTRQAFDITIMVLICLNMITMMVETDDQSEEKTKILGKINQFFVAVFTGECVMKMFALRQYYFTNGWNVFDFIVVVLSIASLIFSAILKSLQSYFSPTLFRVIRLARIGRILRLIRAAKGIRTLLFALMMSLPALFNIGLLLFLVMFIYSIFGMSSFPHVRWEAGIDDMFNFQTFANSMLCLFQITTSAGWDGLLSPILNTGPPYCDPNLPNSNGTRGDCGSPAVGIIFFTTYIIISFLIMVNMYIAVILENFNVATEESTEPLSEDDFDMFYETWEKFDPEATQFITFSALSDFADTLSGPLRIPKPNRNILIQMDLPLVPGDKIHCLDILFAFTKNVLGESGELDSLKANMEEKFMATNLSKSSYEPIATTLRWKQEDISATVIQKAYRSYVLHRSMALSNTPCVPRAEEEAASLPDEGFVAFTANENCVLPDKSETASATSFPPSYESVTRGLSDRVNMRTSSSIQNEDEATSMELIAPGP

CC1(Cn2nc(C3(F)CC3)c(C(F)F)c2C(=O)Nc2ccc(F)c(S(C)(=N)=O)c2)CC(F)(F)C1 (single isomer, unassigned) [Example 133b, 1-((3,3-Difluoro-1-methylcyclobutyl)methyl)-4-(difluoromethyl)-N-(4-fluoro-3-(S-methylsulfonimidoyl)phenyl)-3-(1-fluorocyclopropyl)-1H-pyrazole-5-carboxamide]
IC50: ≤ 0.1 µM

C[C@H]1C[C@@H]1c1nn(CC2(C)CC(F)(F)C2)c(C(=O)Nc2ccnc([S@@](C)(=N)=O)c2)c1C(F)(F)F (single isomer, unassigned) [Example 65b, 1-((3,3-Difluoro-1-methylcyclobutyl)methyl)-3-((trans)-2-methylcyclopropyl)-N-(2-(S-methylsulfonimidoyl)pyridin-4-yl)-4-(trifluoromethyl)-1H-pyrazole-5-carboxamide]
IC50: ≤ 0.1 µM

C[S@@](=N)(=O)c1cc(NC(=O)c2c(C(F)(F)F)c(C3CC3)nn2C[C@H]2C(F)(F)C23CC3)ccn1 (single isomer, unassigned) [Example 79a, 3-cyclopropyl-1-((2,2-difluorospiro[2.2]pentan-1-yl)methyl)-N-(2-(S-methylsulfonimidoyl)pyridin-4-yl)-4-(trifluoromethyl)-1H-pyrazole-5-carboxamide]
IC50: ≤ 0.1 µM

CC1(Cn2nc(C3(F)CC3)c(C(F)F)c2C(=O)Nc2cccc(S(C)(=N)=O)c2)CC(F)(F)C1 (single isomer, unassigned) [Example 135b, 1-((3,3-Difluoro-1-methylcyclobutyl)methyl)-4-(difluoromethyl)-3-(1-fluorocyclopropyl)-N-(3-(S-methylsulfonimidoyl)phenyl)-1H-pyrazole-5-carboxamide]
IC50: ≤ 0.1 µM

CC1(Cn2nc(C3(C(F)F)CC3)c(C(F)(F)F)c2C(=O)Nc2ccnc(S(C)(=N)=O)c2)CC(F)(F)C1 (single isomer, unassigned) [Example 145a, 1-((3,3-Difluoro-1-methylcyclobutyl)methyl)-3-(1-(difluoromethyl)cyclopropyl)-N-(2-(S-methylsulfonimidoyl)pyridin-4-yl)-4-(trifluoromethyl)-1H-pyrazole-5-carboxamide]
IC50: ≤ 0.1 µM

CC1(Cn2nc(C(C)(F)F)c(C(F)(F)F)c2C(=O)Nc2ccnc(S(C)(=N)=O)c2)CC(F)(F)C1 (single isomer, unassigned) [Example 75a, 1-((3,3-difluoro-1-methylcyclobutyl)methyl)-3-(1,1-difluoroethyl)-N-(2-(S-methylsulfonimidoyl)pyridin-4-yl)-4-(trifluoromethyl)-1H-pyrazole-5-carboxamide]
IC50: ≤ 0.1 µM

CC1(Cn2nc(C3CC(F)(F)C3)c(C(F)(F)F)c2C(=O)Nc2ccnc(S(C)(=N)=O)c2)CC(F)(F)C1 (single isomer, unassigned) [Example 57b, 1-((3,3-Difluoro-1-methylcyclobutyl)methyl)-3-(3,3-difluorocyclobutyl)-N-(2-(S-methylsulfonimidoyl)pyridin-4-yl)-4-(trifluoromethyl)-1H-pyrazole-5-carboxamide]
IC50: ≤ 0.1 µM

CC1(Cn2nc(C3CCC3)c(C(F)(F)F)c2C(=O)Nc2ccnc(S(C)(=N)=O)c2)CC(F)(F)C1 (single isomer, unassigned) [Example 56b, 3-cyclobutyl-1-((3,3-difluoro-1-methylcyclobutyl)methyl)-N-(2-(S-methylsulfonimidoyl)pyridin-4-yl)-4-(trifluoromethyl)-1H-pyrazole-5-carboxamide]
IC50: ≤ 0.1 µM

CC1(Cn2nc(C3(C(F)F)CC3)c(C(F)(F)F)c2C(=O)Nc2ccnc(S(C)(=N)=O)c2)CC(F)(F)C1 (single isomer, unassigned) [Example 145b, 1-((3,3-Difluoro-1-methylcyclobutyl)methyl)-3-(1-(difluoromethyl)cyclopropyl)-N-(2-(S-methylsulfonimidoyl)pyridin-4-yl)-4-(trifluoromethyl)-1H-pyrazole-5-carboxamide]
IC50: ≤ 0.1 µM

CS(=N)(=O)c1cc(NC(=O)c2c(C(F)(F)F)c(C3CC3)nn2C[C@@H]2CCC(F)(F)C2)ccn1 (single isomer, unassigned) [Example 17d]
IC50: ≤ 0.1 µM

CC1(Cn2nc(C34CC(F)(C3)C4)c(C(F)F)c2C(=O)Nc2cccc(S(C)(=N)=O)c2)CC(F)(F)C1 (single isomer, unassigned) [Example 113b, 1-((3,3-Difluoro-1-methylcyclobutyl)methyl)-4-(difluoromethyl)-3-(3-fluorobicyclo[1.1.1]pentan-1-yl)-N-(3-(S-methylsulfonimidoyl)phenyl)-1H-pyrazole-5-carboxamide]
IC50: ≤ 0.1 µM

CC1(Cn2nc(C3CCCC3)c(C(F)(F)F)c2C(=O)Nc2ccnc(S(C)(=N)=O)c2)CC(F)(F)C1 (single isomer, unassigned) [Example 59a, 3-Cyclopentyl-1-((3,3-difluoro-1-methylcyclobutyl)methyl)-N-(2-(S-methylsulfonimidoyl)pyridin-4-yl)-4-(trifluoromethyl)-1H-pyrazole-5-carboxamide]
IC50: ≤ 0.1 µM

Cc1c(C(C)(F)F)nn(C[C@H]2C[C@@H](C(F)(F)F)C2)c1C(=O)Nc1ccnc(S(C)(=N)=O)c1 (single isomer, unassigned) [Example 31a, 3-(1,1-difluoroethyl)-4-methyl-N-(2-(S-methylsulfonimidoyl)pyridin-4-yl)-1-(((cis)-3-(trifluoromethyl)cyclobutyl)methyl)-1H-pyrazole-5-carboxamide]
IC50: ≤ 0.1 µM

CC1(Cn2nc(C3CCCC3)c(C(F)(F)F)c2C(=O)Nc2ccnc(S(C)(=N)=O)c2)CC(F)(F)C1 (single isomer, unassigned) [Example 59b, 3-Cyclopentyl-1-((3,3-difluoro-1-methylcyclobutyl)methyl)-N-(2-(S-methylsulfonimidoyl)pyridin-4-yl)-4-(trifluoromethyl)-1H-pyrazole-5-carboxamide]
IC50: ≤ 0.1 µM

C[C@]1(Cn2nc(C3CC3)c(C(F)(F)F)c2C(=O)Nc2ccnc([S@@](C)(=N)=O)c2)CC(F)(F)C12CC2 (single isomer, unassigned) [Example 92b, 3-cyclopropyl-1-((6,6-difluoro-4-methylspiro[2.3]hexan-4-yl)methyl)-N-(2-(S-methylsulfonimidoyl)pyridin-4-yl)-4-(trifluoromethyl)-1H-pyrazole-5-carboxamide]
IC50: ≤ 0.1 µM

C[S@](=N)(=O)c1cccc(NC(=O)c2c(C(F)(F)F)c(C3(F)CC3)nn2CC2C[C@H]2C(F)(F)F)c1 (single isomer, unassigned) [Example 134d, 3-(1-Fluorocyclopropyl)-N-(3-(S-methylsulfonimidoyl)phenyl)-4-(trifluoromethyl)-1-(((trans)-2-(trifluoromethyl)cyclopropyl)methyl)-1H-pyrazole-5-carboxamide]
IC50: ≤ 0.1 µM

C[C@]1(Cn2nc(C3CC3)c(C(F)(F)F)c2C(=O)Nc2ccnc([S@](C)(=N)=O)c2)CC(F)(F)C12CC2 (single isomer, unassigned) [Example 92a, 3-cyclopropyl-1-((6,6-difluoro-4-methylspiro[2.3]hexan-4-yl)methyl)-N-(2-(S-methylsulfonimidoyl)pyridin-4-yl)-4-(trifluoromethyl)-1H-pyrazole-5-carboxamide]
IC50: ≤ 0.1 µM

Cc1c(C(C)(F)F)nn(CC2CCC(F)(F)CC2)c1C(=O)Nc1ccnc(S(C)(=N)=O)c1 (single isomer, unassigned) [Example 9a, 1-((4,4-difluorocyclohexyl)methyl)-3-(1,1-difluoroethyl)-4-methyl-N-(2-(S-methylsulfonimidoyl)pyridin-4-yl)-1H-pyrazole-5-carboxamide]
IC50: ≤ 0.1 µM

Cc1c(C(C)(F)F)nn(CC2CCC(F)(F)CC2)c1C(=O)Nc1ccnc(S(C)(=N)=O)c1 (single isomer, unassigned) [Example 9b, 1-((4,4-difluorocyclohexyl)methyl)-3-(1,1-difluoroethyl)-4-methyl-N-(2-(S-methylsulfonimidoyl)pyridin-4-yl)-1H-pyrazole-5-carboxamide]
IC50: ≤ 0.1 µM

CC1(Cn2nc(C3CC3)c(C(F)(F)F)c2C(=O)Nc2ccnc(S(C)(=N)=O)c2)CC(F)(F)C1 (single isomer, unassigned) [Example 1b, 3-cyclopropyl-1-((3,3-difluoro-1-methylcyclobutyl)methyl)-N-(2-(S-methylsulfonimidoyl)pyridin-4-yl)-4-(trifluoromethyl)-1H-pyrazole-5-carboxamide]
IC50: ≤ 0.1 µM

CC(F)(F)c1nn(CC2CC(F)(F)C2)c(C(=O)Nc2ccnc(S(C)(=N)=O)c2)c1C(F)(F)F (stereo not shown) [Example 3, 1-((3,3-Difluorocyclobutyl)methyl)-3-(1,1-difluoroethyl)-N-(2-(S-methylsulfonimidoyl)pyridin-4-yl)-4-(trifluoromethyl)-1H-pyrazole-5-carboxamide]
IC50: ≤ 0.1 µM

CS(=N)(=O)c1cc(NC(=O)c2c(C(F)(F)F)c(C3CC3)nn2C[C@H]2CCC(F)(F)C2)ccn1 (single isomer, unassigned) [Example 17b]
IC50: ≤ 0.1 µM

Cc1cc(NC(=O)c2c(C(F)(F)F)c(C3CC3)nn2CC2(C)CC(F)(F)C2)cc(S(C)(=N)=O)n1 (single isomer, unassigned) [Example 50a, 3-cyclopropyl-1-((3,3-difluoro-1-methylcyclobutyl)methyl)-N-(2-methyl-6-(S-methylsulfonimidoyl)pyridin-4-yl)-4-(trifluoromethyl)-1H-pyrazole-5-carboxamide]
IC50: ≤ 0.1 µM

CC1(Cn2nc(C3CC34CC4)c(C(F)(F)F)c2C(=O)Nc2ccnc(S(C)(=N)=O)c2)CC(F)(F)C1 (single isomer, unassigned) [Example 64b, 1-((3,3-difluoro-1-methylcyclobutyl)methyl)-N-(2-(S-methylsulfonimidoyl)pyridin-4-yl)-3-(spiro[2.2]pentan-1-yl)-4-(trifluoromethyl)-1H-pyrazole-5-carboxamide]
IC50: ≤ 0.1 µM

Cc1c(C(C)(F)F)nn(CC2CCC(F)(F)C2)c1C(=O)Nc1ccnc(S(C)(=N)=O)c1 (stereo not shown) [Example 4, 1-((3,3-Difluorocyclopentyl)methyl)-3-(1,1-difluoroethyl)-4-methyl-N-(2-(S-methylsulfonimidoyl)pyridin-4-yl)-1H-pyrazole-5-carboxamide]
IC50: ≤ 0.1 µM
